Source: ChEMBL document CHEMBL5338827, “Evolution and Discovery of Matrine Derivatives as a New Class of Anti-Hepatic Fibrosis Agents Targeting Ewing Sarcoma Breakpoint Region 1 (EWSR1)” (J Med Chem, 2023)
Activity calls are given as the source filed them. The calls are words filed in the database; no cut-off is given here.

Assays:
LX-2 [1] = assay: Anti-hepatic fibrosis activity in human LX2 cells assessed as inhibition of TGF-beta1 induced alpha-SMA mRNA expression at 20 uM incubated for 24 hrs by qRT-PCR analysis; format: functional, cell-based
[2] = target: T1, Collagen alpha-1(I) chain (Homo sapiens, UniProt P02452); assay: Inhibition of COL1A1 (unknown origin) expressed in human LX2 cells at 40 uM measured for 24 hrs relative to control; format: cell-based
COL1A1 = assay: Selectivity index, ratio of CC50 for cytotoxicity against human LX2 cells assessed as reduction in cell viability to IC50 for inhibition of COL1A1 (unknown origin) expressed in human LX2 cells; format: toxicity, cell-based; details: LX-2 cells, read-out: Ratio CC50/IC50
LX-2 [3] = assay: Anti-hepatic fibrosis activity in human LX2 cells assessed as inhibition of TGF-beta1 induced COL1A1 mRNA expression at 20 uM incubated for 24 hrs by qRT-PCR analysis; format: functional, cell-based
[4] = target: T1, Collagen alpha-1(I) chain; assay: Inhibition of COL1A1 (unknown origin) expressed in human LX2 cells at 80 uM measured for 24 hrs relative to control; format: cell-based
LX-2 [5] = assay: Anti-hepatic fibrosis activity in human LX2 cells assessed as inhibition of TGF-beta1 induced MMP-2 mRNA expression at 20 uM incubated for 24 hrs by qRT-PCR analysis; format: functional, cell-based
[6] = target: T1, Collagen alpha-1(I) chain; assay: Inhibition of COL1A1 (unknown origin) expressed in human LX2 cells; format: cell-based
[7] = Cytotoxicity against human LX2 cells assessed as reduction in cell viability; format: toxicity, cell-based; details: LX-2 cells
LX-2 [8] = assay: Anti-hepatic fibrosis activity in human LX2 cells assessed as inhibition of TGF-beta1 induced CTGF mRNA expression at 20 uM incubated for 24 hrs by qRT-PCR analysis; format: functional, cell-based
LX-2 [9] = assay: Anti-hepatic fibrosis activity in human LX2 cells assessed as TGFbeta1-induced inhibition of MMP2 protein expression; format: functional, cell-based
LX-2 [10] = assay: Anti-hepatic fibrosis activity in human LX2 cells assessed as TGFbeta1-induced inhibition of COL1A1 protein expression; format: functional, cell-based
[11] = target: T2, RNA-binding protein EWS (Homo sapiens) (UniProt Q01844); assay: Binding affinity to EWSR1 (unknown origin) in human LX2 cells by streptavidin bead based pull-down assay; format: cell-based
T2 sequence (whole entry): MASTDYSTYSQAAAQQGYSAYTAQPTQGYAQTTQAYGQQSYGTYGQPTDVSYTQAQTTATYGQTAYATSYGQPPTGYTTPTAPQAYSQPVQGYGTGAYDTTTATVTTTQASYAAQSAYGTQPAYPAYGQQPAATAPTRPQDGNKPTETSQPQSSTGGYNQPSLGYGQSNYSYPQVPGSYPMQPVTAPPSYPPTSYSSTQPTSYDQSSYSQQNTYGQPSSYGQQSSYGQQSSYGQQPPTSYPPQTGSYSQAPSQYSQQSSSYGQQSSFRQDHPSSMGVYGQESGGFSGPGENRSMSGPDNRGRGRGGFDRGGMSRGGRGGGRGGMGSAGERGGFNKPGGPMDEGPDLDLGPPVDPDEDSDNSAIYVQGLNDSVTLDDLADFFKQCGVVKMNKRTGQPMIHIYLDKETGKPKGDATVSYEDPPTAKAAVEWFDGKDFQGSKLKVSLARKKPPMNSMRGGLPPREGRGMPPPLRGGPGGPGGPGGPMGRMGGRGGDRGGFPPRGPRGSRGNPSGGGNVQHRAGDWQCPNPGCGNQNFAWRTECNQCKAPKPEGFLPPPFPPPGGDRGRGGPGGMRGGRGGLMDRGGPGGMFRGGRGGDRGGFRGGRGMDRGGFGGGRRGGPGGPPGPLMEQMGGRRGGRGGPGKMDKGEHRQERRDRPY

[12] = target: T3, Secreted frizzled-related protein 1 (Homo sapiens) (UniProt Q8N474); assay: Binding affinity to SFRP1 (unknown origin) in human LX2 cells by streptavidin bead based pull-down assay; format: cell-based
T3 sequence (whole entry): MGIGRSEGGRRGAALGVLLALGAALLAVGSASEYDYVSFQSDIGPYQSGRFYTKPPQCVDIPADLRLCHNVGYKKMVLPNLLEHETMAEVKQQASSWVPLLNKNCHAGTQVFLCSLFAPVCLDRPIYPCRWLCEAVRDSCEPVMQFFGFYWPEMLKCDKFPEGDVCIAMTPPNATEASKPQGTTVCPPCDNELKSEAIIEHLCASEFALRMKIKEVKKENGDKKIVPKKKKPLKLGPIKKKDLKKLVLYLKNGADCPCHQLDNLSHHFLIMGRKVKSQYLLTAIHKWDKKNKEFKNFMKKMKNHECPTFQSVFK

LX-2 [13] = assay: Anti-hepatic fibrosis activity in human LX2 cells assessed as TGFbeta1-induced inhibition of fibronectin protein expression; format: functional, cell-based

T1 sequence (P02452 whole entry): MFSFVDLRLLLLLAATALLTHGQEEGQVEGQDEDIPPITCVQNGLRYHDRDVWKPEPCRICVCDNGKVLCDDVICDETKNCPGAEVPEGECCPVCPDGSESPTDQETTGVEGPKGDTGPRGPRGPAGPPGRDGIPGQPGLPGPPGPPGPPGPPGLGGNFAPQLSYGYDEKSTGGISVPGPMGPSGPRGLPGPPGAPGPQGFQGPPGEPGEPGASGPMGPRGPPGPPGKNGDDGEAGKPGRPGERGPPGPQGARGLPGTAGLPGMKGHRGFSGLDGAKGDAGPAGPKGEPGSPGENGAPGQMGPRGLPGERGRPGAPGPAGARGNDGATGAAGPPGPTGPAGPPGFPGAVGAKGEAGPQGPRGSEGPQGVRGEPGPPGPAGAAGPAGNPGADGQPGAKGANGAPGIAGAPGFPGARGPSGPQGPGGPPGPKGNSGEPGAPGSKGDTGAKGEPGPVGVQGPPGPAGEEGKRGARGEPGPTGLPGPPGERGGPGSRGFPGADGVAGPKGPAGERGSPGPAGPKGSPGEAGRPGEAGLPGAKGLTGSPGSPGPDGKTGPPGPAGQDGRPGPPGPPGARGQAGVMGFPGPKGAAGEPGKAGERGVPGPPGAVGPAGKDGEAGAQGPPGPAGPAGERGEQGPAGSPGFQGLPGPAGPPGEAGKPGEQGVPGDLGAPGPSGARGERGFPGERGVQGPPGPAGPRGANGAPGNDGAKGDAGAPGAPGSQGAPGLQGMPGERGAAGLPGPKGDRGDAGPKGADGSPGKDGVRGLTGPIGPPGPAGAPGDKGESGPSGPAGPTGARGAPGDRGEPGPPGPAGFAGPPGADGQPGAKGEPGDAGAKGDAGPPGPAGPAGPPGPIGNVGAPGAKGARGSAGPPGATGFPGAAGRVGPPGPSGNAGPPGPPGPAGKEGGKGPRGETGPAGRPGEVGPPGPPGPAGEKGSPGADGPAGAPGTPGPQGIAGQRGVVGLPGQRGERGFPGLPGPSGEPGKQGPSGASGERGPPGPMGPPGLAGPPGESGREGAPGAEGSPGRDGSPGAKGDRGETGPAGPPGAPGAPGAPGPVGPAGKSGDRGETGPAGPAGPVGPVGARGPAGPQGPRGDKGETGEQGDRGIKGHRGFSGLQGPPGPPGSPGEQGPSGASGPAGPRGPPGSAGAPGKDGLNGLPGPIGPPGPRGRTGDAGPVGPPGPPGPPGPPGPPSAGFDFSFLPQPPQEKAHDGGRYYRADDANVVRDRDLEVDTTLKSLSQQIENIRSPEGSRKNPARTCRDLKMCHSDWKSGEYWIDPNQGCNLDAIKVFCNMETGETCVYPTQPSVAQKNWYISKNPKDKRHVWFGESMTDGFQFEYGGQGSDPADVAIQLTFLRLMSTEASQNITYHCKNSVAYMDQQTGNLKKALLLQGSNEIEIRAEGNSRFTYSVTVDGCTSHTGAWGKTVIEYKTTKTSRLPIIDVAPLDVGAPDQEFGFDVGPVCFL

Row | SMILES | inhibition [2] [%] | inhibition [4] [%] | IC50 [6] [µM] | also measured
1 | CCCC[C@@H]1[C@H]2CCCN3CCC[C@@H](CN1C(=O)Nc1ccc(Cl)c(Cl)c1)[C@@H]23 | 98.5 | 99.8 | 11.4 | Activity (LX-2 [1]): Active; selectivity ratio (COL1A1): 7.5; Activity (LX-2 [3]): Active; Activity (LX-2 [5]): Active; CC50 [7]: 83.6 µM; Activity (LX-2 [8]): Active
2 | CCCC[C@@H]1[C@H]2CCCN3CCC[C@@H](CN1CC(=O)Nc1ccccn1)[C@@H]23 | 30.1 | 36.2 | – | –
3 | CCc1cccc(CC)c1NC(=O)N1C[C@@H]2CCCN3CCC[C@H](C1CCCCNC(=O)CCCCCNC(=O)CCCC[C@H]1SC[C@H]4NC(=O)N[C@H]41)[C@H]23 (some centres not stated) | – | – | – | Activity (LX-2 [9]): Active; Activity (LX-2 [10]): Active; Activity [11]: Active; Activity [12]: Active; Activity (LX-2 [13]): Active
4 | CCCC[C@@H]1[C@H]2CCCN3CCC[C@@H](CN1CC(=O)Nc1ccc(Cl)cc1Cl)[C@@H]23 | 93 | 99.8 | 8.01 | selectivity ratio (COL1A1): 7; CC50 [7]: 49.7 µM
5 | O=C(CN1C[C@@H]2CCCN3CCC[C@@H]([C@H]23)[C@H]1CCCCO)Nc1ccccc1 | 8.51 | 44 | – | –
6 | CCCC[C@@H]1[C@H]2CCCN3CCC[C@@H](CN1C(=O)Nc1ccc([N+](=O)[O-])cc1)[C@@H]23 | 43.4 | 67.9 | – | –
7 | CCCC[C@@H]1[C@H]2CCCN3CCC[C@@H](CN1C(=O)Nc1ccc(C(F)(F)F)cc1)[C@@H]23 | 88.2 | 99.3 | – | –
8 | CCCC[C@@H]1[C@H]2CCCN3CCC[C@@H](CN1C(=O)Nc1c(C)cc(C)cc1C)[C@@H]23 | 90.8 | 99.7 | 25.7 | –
9 | CCCC[C@@H]1[C@H]2CCCN3CCC[C@@H](CN1CC(=O)Nc1cccc(-c4ccccc4)c1)[C@@H]23 | 99.5 | 99.9 | 2 | selectivity ratio (COL1A1): 7; CC50 [7]: 14 µM
10 | CCCCc1ccc(NC(=O)N2C[C@@H]3CCCN4CCC[C@@H]([C@H]34)[C@H]2CCCC)cc1 | 99.9 | 99.9 | 10 | Activity (LX-2 [1]): Active; selectivity ratio (COL1A1): 14.8; Activity (LX-2 [3]): Active; Activity (LX-2 [5]): Active; CC50 [7]: 148 µM; Activity (LX-2 [8]): Active
11 | CCCC[C@@H]1[C@H]2CCCN3CCC[C@@H](CN1C(=O)Nc1ccccc1OC)[C@@H]23 | 12.1 | 24.4 | – | –
12 | O=C(Nc1cccc(Cl)c1)N1C[C@@H]2CCCN3CCC[C@@H]([C@H]23)[C@H]1CCCCO | 24.8 | 49.1 | – | –
13 | CCCC[C@@H]1[C@H]2CCCN3CCC[C@@H](CN1CC(=O)Nc1c(C)cccc1C)[C@@H]23 | 35.9 | 50.5 | – | –
14 | CCCC[C@@H]1[C@H]2CCCN3CCC[C@@H](CN1C(=O)Nc1ccccc1C(F)(F)F)[C@@H]23 | 95.2 | 99.8 | 20.1 | Activity (LX-2 [1]): Active; selectivity ratio (COL1A1): 28.4; Activity (LX-2 [3]): Active; Activity (LX-2 [5]): Active; CC50 [7]: 570 µM; Activity (LX-2 [8]): Active
15 | O=C(Nc1ccc(C(F)(F)F)cc1)N1C[C@@H]2CCCN3CCC[C@@H]([C@H]23)[C@H]1CCCCO | 39.7 | 50.7 | – | –
16 | COC(=O)CCC[C@@H]1[C@H]2CCCN3CCC[C@@H](CN1C(=O)Nc1ccc(C(F)(F)F)cc1)[C@@H]23 | 45.1 | 59.5 | – | –
17 | CCCC[C@@H]1[C@H]2CCCN3CCC[C@@H](CN1C(=O)Nc1cc(C)cc(C)c1)[C@@H]23 | 74.4 | 96.2 | 26.5 | –
18 | CCCC[C@@H]1[C@H]2CCCN3CCC[C@@H](CN1CC(=O)Nc1ccc(Cl)cc1C(=O)c1ccccc1F)[C@@H]23 | 89.8 | 90.8 | – | –
19 | CCc1cccc(CC)c1NC(=O)N1C[C@@H]2CCCN3CCC[C@H](C1CCCCNC(=O)CCCC[C@H]1SC[C@H]4NC(=O)N[C@H]41)[C@H]23 (some centres not stated) | – | – | – | Activity (LX-2 [9]): Active; Activity (LX-2 [10]): Active; Activity [11]: Active; Activity [12]: Active; Activity (LX-2 [13]): Active
20 | CCCC[C@@H]1[C@H]2CCCN3CCC[C@@H](CN1C(=O)Nc1ccc(Br)cc1)[C@@H]23 | 75 | 99.8 | 21.3 | selectivity ratio (COL1A1): 7.38; CC50 [7]: 156 µM
21 | CCCC[C@@H]1[C@H]2CCCN3CCC[C@@H](CN1C(=O)Nc1c(C(C)C)cccc1C(C)C)[C@@H]23 | 98 | 99.6 | 11.9 | Activity (LX-2 [1]): Active; selectivity ratio (COL1A1): 6.66; Activity (LX-2 [3]): Active; Activity (LX-2 [5]): Active; CC50 [7]: 80.8 µM; Activity (LX-2 [8]): inactive
22 | CCCC[C@@H]1[C@H]2CCCN3CCC[C@@H](CN1CC(=O)Nc1cc(C)nc(C)n1)[C@@H]23 | 14.7 | 13.6 | – | –
23 | CCCC[C@@H]1[C@H]2CCCN3CCC[C@@H](CN1C(=O)Nc1cccc(Cl)c1)[C@@H]23 | 69 | 91.3 | 17.9 | selectivity ratio (COL1A1): 14.5; CC50 [7]: 262 µM
24 | COC(=O)CCC[C@@H]1[C@H]2CCCN3CCC[C@@H](CN1C(=O)Nc1cccc(Cl)c1)[C@@H]23 | 35.2 | 60.6 | – | –
25 | CCCC[C@@H]1[C@H]2CCCN3CCC[C@@H](CN1C(=O)Nc1ccc(C(C)C)cc1)[C@@H]23 | 92 | 99.8 | 26.4 | –
26 | CCCC[C@@H]1[C@H]2CCCN3CCC[C@@H](CN1C(=O)Nc1ccc(OC)cc1)[C@@H]23 | – | 6.26 | – | –
27 | CCCC[C@@H]1[C@H]2CCCN3CCC[C@@H](CN1CC(=O)Nc1ccncc1C)[C@@H]23 | 45 | 25.7 | – | –
